The target of data set [1] is Tyrosine-protein kinase Lck (Homo sapiens, UniProt P06239). In words: Inhibition of human recombinant Lck in presence of 10 mM ATP.
Data set [2] can be described thus: Aqueous solubility of the compound. It is filed as physicochemical. The following applies: buffer.
In data set [3] the target is Tyrosine-protein kinase HCK (Homo sapiens, UniProt P08631). Briefly: Inhibition of human recombinant Hck in presence of 10 mM ATP.
Another data set has as its system Jurkat. Briefly: Inhibition of anti-human CD3 epsilon-stimulated IL2 production in Jurkat E6-1 T cells. It is filed as functional, cell-based.
Data set [4] addresses Proto-oncogene tyrosine-protein kinase Src (Homo sapiens, UniProt P12931). In words: Inhibition of human recombinant Src in presence of 10 mM ATP.
Data set [5] in a line: Metabolic stability in Sprague-Dawley rat liver microsome after 1 hr. It is filed as ADME. The following applies: liver microsomes, read-out: Stability.
Data set [6] in a line: Half life in rat. It is filed as ADME, organism-based. The following applies: in vivo.
The nature of data set [7]: Bioavailability in rat. The following applies: in vivo. It is filed as ADME, organism-based.

Structures are written as SMILES. Values after ≈ are worked out from the molar mass of the structure shown.

Proto-oncogene tyrosine-protein kinase Src, sequence (P12931 2-536 limits assumed): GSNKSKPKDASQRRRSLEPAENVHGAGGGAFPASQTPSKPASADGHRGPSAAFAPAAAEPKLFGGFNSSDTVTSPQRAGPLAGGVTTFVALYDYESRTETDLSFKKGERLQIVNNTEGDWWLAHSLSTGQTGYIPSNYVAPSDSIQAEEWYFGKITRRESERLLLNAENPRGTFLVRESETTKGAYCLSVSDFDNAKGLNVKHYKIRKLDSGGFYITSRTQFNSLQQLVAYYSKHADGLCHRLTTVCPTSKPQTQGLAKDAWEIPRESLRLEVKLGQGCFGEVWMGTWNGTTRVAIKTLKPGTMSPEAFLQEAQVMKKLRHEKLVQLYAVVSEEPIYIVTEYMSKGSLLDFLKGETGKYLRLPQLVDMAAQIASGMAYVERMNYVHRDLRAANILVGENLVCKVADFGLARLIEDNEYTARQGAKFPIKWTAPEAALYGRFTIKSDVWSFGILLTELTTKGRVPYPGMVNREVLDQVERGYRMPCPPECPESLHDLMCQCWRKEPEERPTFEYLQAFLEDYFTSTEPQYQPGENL
Tyrosine-protein kinase Lck, sequence (P06239 whole entry): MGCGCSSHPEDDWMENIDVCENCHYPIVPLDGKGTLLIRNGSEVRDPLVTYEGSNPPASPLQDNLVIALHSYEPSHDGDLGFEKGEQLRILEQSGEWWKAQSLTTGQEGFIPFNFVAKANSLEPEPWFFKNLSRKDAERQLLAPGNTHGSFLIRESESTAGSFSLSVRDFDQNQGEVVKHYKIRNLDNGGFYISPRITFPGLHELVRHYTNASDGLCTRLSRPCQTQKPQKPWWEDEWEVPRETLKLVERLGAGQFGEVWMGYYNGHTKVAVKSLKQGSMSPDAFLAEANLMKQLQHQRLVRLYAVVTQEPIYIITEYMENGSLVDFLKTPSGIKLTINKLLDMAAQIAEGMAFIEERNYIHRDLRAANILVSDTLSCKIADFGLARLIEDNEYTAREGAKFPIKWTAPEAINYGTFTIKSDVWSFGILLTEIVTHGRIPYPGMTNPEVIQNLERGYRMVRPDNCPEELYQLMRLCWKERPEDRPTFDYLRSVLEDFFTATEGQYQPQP
Tyrosine-protein kinase HCK, sequence (P08631 whole entry): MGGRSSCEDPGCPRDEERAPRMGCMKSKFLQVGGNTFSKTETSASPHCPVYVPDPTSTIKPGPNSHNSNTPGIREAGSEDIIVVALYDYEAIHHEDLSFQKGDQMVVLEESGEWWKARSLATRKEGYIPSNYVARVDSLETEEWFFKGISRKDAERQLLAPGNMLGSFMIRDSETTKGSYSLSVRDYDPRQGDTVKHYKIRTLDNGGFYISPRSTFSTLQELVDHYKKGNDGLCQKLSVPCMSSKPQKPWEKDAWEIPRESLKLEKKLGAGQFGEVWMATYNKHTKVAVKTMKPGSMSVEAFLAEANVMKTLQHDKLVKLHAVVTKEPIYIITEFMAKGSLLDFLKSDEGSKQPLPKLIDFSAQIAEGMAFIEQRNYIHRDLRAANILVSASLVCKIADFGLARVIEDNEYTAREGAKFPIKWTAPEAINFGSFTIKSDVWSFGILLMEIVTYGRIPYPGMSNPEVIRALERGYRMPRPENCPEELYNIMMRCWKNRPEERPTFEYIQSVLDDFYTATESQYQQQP

As for `COc1ccc(Cl)c(C2=Cc3cnc(Nc4ccc(F)cc4)nc3N3CCC(=O)N23)c1`, the IC50 in data set [1] (read-out: IC50) amounted to 4.8 µM. For the same compound, in data set [2], the solubility worked out at 7 µg/mL (≈ 16 µM).
Turning to `COC(=O)c1ccc(Nc2ncc3c(n2)N2CCC(=O)N2C(c2c(Cl)cccc2Cl)=C3)cc1`, the IC50 in data set [1] (read-out: IC50) was 0.143 µM.
On to `CN(C)c1ccc(Nc2ncc3c(n2)N2CCC(=O)N2C(c2cc(O)ccc2Cl)=C3)cc1`, for which the IC50 was found to be 0.546 µM in data set [3], 0.000546 µM in the data set on Jurkat, 0.273 µM in data set [4] and 0.01 µM in data set [1] (read-out: IC50). Further, in data set [2], the concentration in solution (solubility) came to 1 µg/mL (≈ 2.23 µM).
With `CN1C(c2c(Cl)cccc2Cl)=Cc2cnc(Nc3ccc(F)cc3)nc2N1C`, in data set [1] (read-out: IC50), the IC50 is 3.2 µM.
The same measure, in the same setting: in the case of `COc1ccccc1Nc1ncc2c(n1)N1CCC(=O)N1C(c1c(Cl)cccc1Cl)=C2` it was 7.27 µM.
On to `O=C1CCN2c3nc(Nc4ccccc4)ncc3C=C(c3c(Cl)cccc3Cl)N12`, for which, in data set [1] (read-out: IC50), the IC50 came out at 0.182 µM. For the same compound, the concentration in solution in data set [2] (solubility) came to 2 µg/mL (≈ 4.71 µM).
The corresponding values for `CCN(CC)c1ccc(Nc2ncc3c(n2)N2CCC(=O)N2C(c2c(Cl)cccc2Cl)=C3)cc1` are 0.043 µM and 1 µg/mL (≈ 2.02 µM).
For the compound `CN1CCN(c2ccc(Nc3ncc4c(n3)N3CCC(=O)N3C(c3cc(O)ccc3Cl)=C4)cc2)CC1`, the IC50 in data set [3] amounted to 0.456 µM; in the data set on Jurkat, 0.0021 µM; in data set [4] it was 0.764 µM; in data set [1] (read-out: IC50) it was 0.047 µM. The compound further showed a solubility in data set [2] of 11 µg/mL (≈ 21.8 µM).
For `O=C1CCN2c3nc(Nc4ccc(N5CCOCC5)cc4)ncc3C=C(c3c(Cl)cccc3Cl)N12`, in that order: 0.16 µM, 0.002 µM, 0.104 µM, 0.003 µM and 6 µg/mL (≈ 11.8 µM).
Regarding `CNc1ncc2c(n1)N1CCC(=O)N1C(c1c(Cl)cccc1Cl)=C2`, the IC50 in data set [1] (read-out: IC50) came to 2.81 µM.
Same read-out and setting: under `CCOc1ccc(Nc2ncc3c(n2)N2CCC(=O)N2C(c2c(Cl)cccc2Cl)=C3)cc1` stands 0.285 µM.
As to `O=C1CCN2c3nc(Nc4ccc(F)cc4)ncc3C=C(c3c(Cl)cccc3Cl)N12`, in data set [1] (read-out: IC50), the IC50 amounted to 0.124 µM. This compound showed a solubility in data set [2] of 2 µg/mL (≈ 4.52 µM).
For `CN(C)c1ccc(Nc2ncc3c(n2)N2CCC(=O)N2C(c2c(Cl)cccc2Cl)=C3)cc1`, in that order: 0.026 µM and 5 µg/mL (≈ 10.7 µM).
As for `CN1C(c2ccccc2Cl)=Cc2cnc(Nc3ccc(F)cc3)nc2N1C`, the IC50 result in data set [1] is listed as “Not Active”.
Regarding `COc1ccc(Cl)c(C2=Cc3cnc(Nc4ccc(N(C)C)cc4)nc3N3CCC(=O)N23)c1`, the half-inhibitory concentration (IC50) in data set [1] (read-out: IC50) was 2.84 µM. Moreover, the solubility in data set [2] turned out to be 7 µg/mL (≈ 15.1 µM).
As for `CCN(CC)CCOc1ccc(Nc2ncc3c(n2)N2CCC(=O)N2C(c2c(Cl)cccc2Cl)=C3)cc1`, the remaining at 1 h in data set [5] was more than 84%. In data set [6], this compound had a half-life of 1.5 h. The same compound displayed a bioavailability in data set [7] of 14%. Moreover, the concentration for half-maximal inhibition (IC50) in data set [3] stood at 0.048 µM; in the data set with Jurkat, 0.00321 µM; in data set [4], 0.003 µM; in data set [1] (read-out: IC50), 0.002 µM. Besides, the concentration in solution in data set [2] (solubility) was 33.8 µg/mL (≈ 62.7 µM).
`COc1cccc(Nc2ncc3c(n2)N2CCC(=O)N2C(c2c(Cl)cccc2Cl)=C3)c1`: in data set [1] (read-out: IC50), the IC50 was found to be 0.179 µM.
For the compound `COc1ccc(Nc2ncc3c(n2)N2CCC(=O)N2C(c2c(Cl)cccc2Cl)=C3)cc1`, the IC50 in data set [1] (read-out: IC50) was determined as 0.071 µM. The compound further displayed a solubility in data set [2] of 5 µg/mL (≈ 11 µM).
Regarding `CN(C)CCc1ccc(Nc2ncc3c(n2)N2CCC(=O)N2C(c2c(Cl)cccc2Cl)=C3)cc1`, the IC50 in data set [1] (read-out: IC50) was 0.021 µM. Moreover, in data set [2], the concentration in solution (solubility) came to 10 µg/mL (≈ 20.2 µM).

Source of the values: ChEMBL document CHEMBL1146848, “The development of novel 1,2-dihydro-pyrimido[4,5-c]pyridazine based inhibitors of lymphocyte specific kinase (Lck)” (Bioorg Med Chem Lett, 2006).
